Where two headings read alike, the source gives them in different places.

One experiment has as its system HCV 1b genotype. The experiment is described as follows: HCV replicon assay, genotype 1b. It counts as cell-based. As to conditions: Hepatitis C virus, read-out: 1b LE (EC50). The method, then: (§1) An HCV Replicon assay was utilized in the present disclosure, and was prepared, conducted and validated as described in commonly owned PCT/US2006/022197 and in O'Boyle et. al. Antimicrob Agents Chemother. 2005 April; 49(4):1346-53. Assay methods incorporating luciferase reporters have also been used as described (Apath.com).
(§2) HCV-neo replicon cells and replicon cells containing resistance substitutions in the NS5A region were used to test the currently described family of compounds. The compounds were determined to have differing degrees of reduced inhibitory activity on cells containing mutations vs. the corresponding inhibitory potency against wild-type cells. Thus, the compounds of the present disclosure can be effective in inhibiting the function of the HCV NS5A protein and are understood to be as effective in combinations as previously described in application PCT/US2006/022197 and commonly owned WO/04014852. It should be understood that the compounds of the present disclosure can inhibit multiple genotypes of HCV.
Background: A replicon is a self-replicating genome or part of one, used to study replication in cells.

For the next experiment, the system named is HCV 1a. The experiment is described as follows: HCV replicon assay, genotype 1a. It counts as cell-based. The following applies: Hepatitis C virus, read-out: 1a LE (EC50). As to the method:
as §1, §2

On to `CC[C@@H]1C[C@@H]([C@H](NC(=O)OC)C(=O)N2[C@@H](C)CC[C@H]2c2ncc(-c3ccc(-c4ccc(-c5cnc([C@@H]6CC[C@H](C)N6C(=O)[C@@H](NC(=O)OC)[C@H]6C[C@@H](C)O[C@H](C7CC7)C6)[nH]5)cc4)cc3)[nH]2)C[C@@H](C)O1` [Example 1, methyl N-[(1S)-1-[(2S,4S,6R)-2-cyclopropyl-6-methyloxan-4-yl]-2-[(2S,5S)-2-{5-[4-(4-{2-[(2S,5S)-1-[(2S)-2-[(2R,4S,6R)-2-ethyl-6-methyloxan-4-yl]-2-[(methoxycarbonyl)amino]acetyl]-5-methylpyrrolidin-2-yl]-1H-imidazol-5-yl}phenyl)phenyl]-1H-imidazol-2-yl}-5-methylpyrrolidin-1-yl]-2-oxoethyl]carbamate], for which the EC50 in the experiment on HCV 1b genotype (given as range class) and in the experiment on HCV 1a (given as range class) was 2 to 8 pM throughout.

On to `CC[C@@H]1C[C@@H]([C@H](NC(=O)OC)C(=O)N2[C@@H](C)CC[C@H]2c2ncc(-c3ccc(-c4ccc(-c5cnc([C@@H]6CC[C@H](C)N6C(=O)[C@@H](NC(=O)OC)[C@H]6C[C@@H](C)O[C@H](C7CC7)C6)[nH]5)cc4)cc3)[nH]2)CCO1` [Example 2, methyl N-[(1S)-1-[(2S,4S,6R)-2-cyclopropyl-6-methyloxan-4-yl]-2-[(2S,5S)-2-{5-[4-(4-{2-[(2S,5S)-1-[(2S)-2-[(2R,4S)-2-ethyloxan-4-yl]-2-[(methoxycarbonyl)amino]acetyl]-5-methylpyrrolidin-2-yl]-1H-imidazol-5-yl}phenyl)phenyl]-1H-imidazol-2-yl}-5-methylpyrrolidin-1-yl]-2-oxoethyl]carbamate], for which the EC50 in the experiment on HCV 1b genotype came to 5.76 pM; in the experiment on HCV 1a, 4.52 pM.

On to `COC(=O)N[C@H](C(=O)N1[C@@H](C)CC[C@H]1c1ncc(-c2ccc(-c3ccc(-c4cnc([C@@H]5CC[C@H](C)N5C(=O)[C@@H](NC(=O)OC)[C@H]5C[C@@H](C)O[C@H](C6CC6)C5)[nH]4)cc3)cc2)[nH]1)C(C)C` [Example 3, methyl N-[(1S)-1-[(2S,4S,6R)-2-cyclopropyl-6-methyloxan-4-yl]-2-[(2S,5S)-2-{5-[4-(4-{2-[(2S,5S)-1-[(2S)-2-[(methoxycarbonyl)amino]-3-methylbutanoyl]-5-methylpyrrolidin-2-yl]-1H-imidazol-5-yl}phenyl)phenyl]-1H-imidazol-2-yl}-5-methylpyrrolidin-1-yl]-2-oxoethyl]carbamate], for which the EC50 with HCV 1b genotype came out at 2.72 pM; in the experiment on HCV 1a, 7.18 pM.

On to `COC(=O)N[C@H](C(=O)N1[C@@H](C)CC[C@H]1c1ncc(-c2ccc(-c3ccc(-c4cnc([C@@H]5CC[C@H](C)N5C(=O)[C@H](NC(=O)OC)c5ccccc5)[nH]4)cc3)cc2)[nH]1)[C@H]1C[C@@H](C)O[C@H](C2CC2)C1` [Example 4, methyl N-[(1S)-1-[(2S,4S,6R)-2-cyclopropyl-6-methyloxan-4-yl]-2-[(2S,5S)-2-{5-[4-(4-{2-[(2S,5S)-1-[(2R)-2-[(methoxycarbonyl)amino]-2-phenylacetyl]-5-methylpyrrolidin-2-yl]-1H-imidazol-5-yl}phenyl)phenyl]-1H-imidazol-2-yl}-5-methylpyrrolidin-1-yl]-2-oxoethyl]carbamate], for which the EC50 in the experiment with HCV 1b genotype (given as range class) and in the experiment on HCV 1a (given as range class) was 2 to 8 pM in each case.

As to `COC(=O)N[C@H](C(=O)N1[C@@H](C)CC[C@H]1c1ncc(-c2ccc(-c3ccc(-c4cnc([C@@H]5CC[C@H](C)N5C(=O)[C@@H](NC(=O)OC)[C@H]5C[C@@H](C)O[C@H](C6CC6)C5)[nH]4)cc3)cc2)[nH]1)C1C[C@@H](C)O[C@H](C)C1` (stereo partly drawn) [Example 5, methyl N-[(1S)-1-[(2S,4S,6R)-2-cyclopropyl-6-methyloxan-4-yl]-2-[(2S,5S)-2-{5-[4-(4-{2-[(2S,5S)-1-[(2S)-2-[(2R,6R)-2,6-dimethyloxan-4-yl]-2-[(methoxycarbonyl)amino]acetyl]-5-methylpyrrolidin-2-yl]-1H-imidazol-5-yl}phenyl)phenyl]-1H-imidazol-2-yl}-5-methylpyrrolidin-1-yl]-2-oxoethyl]carbamate], the EC50 with HCV 1b genotype (given as range class) and with HCV 1a (given as range class) was 2 to 8 pM each time.

One may read the EC50 as the concentration at which the effect is half-maximal.

For the origin of these results see patent publication US20160311806A1, “4,4'-BIPHENYLDIYL-BIS-(1 H-IMIDAZOLYL) DERIVATIVES AS HEPATITIS HCV INHIBITORS” (BRISTOL-MYERS SQUIBB COMPANY, priority 2013, published 2016).
